Earlier results as cited in patent publication US20060052322A1, “Combination treatment of cancer with elicitor of gene product expression and gene-product targeting agent” (INTROGEN THERAPEUTICS, INC., priority 2004, published 2006).
Counter-ions that a name gives are not always drawn. Like-named read-outs stand apart in the source and are kept apart here. Starred links: 1 amine or outer side, 2 acyl side, 3 side chain; linkers in the order of their positions; H or OH if unused. Positions of bridges follow the written chain, without caps; N, C: chain ends. Non-standard residues stand in square brackets, D forms with d. Residues, ends and D or L forms follow the SMILES beside them. Chains are numbered I, II in the order given. Actinocin(9to1) = Cc1c2oc3c(C)ccc(C(=O)[*:1])c3nc-2c(C(=O)[*:2])c(N)c1=O; NMeV = CN[C@H](C(=O)O)C(C)C; Sar = CNCC(=O)O

Columns and labels:
[1] = share of dose

## COc1cccc2c1C(=O)c1c(O)c3c(c(O)c1C2=O)C[C@@](O)(C(C)=O)C[C@@H]3O[C@H]1C[C@H](N)[C@H](O)[C@H](C)O1 [Daunorubicin, 5,12-Naphthacenedione, (8S-cis)-8-acetyl-10-[(3-amino-2,3,6-trideoxy-a-L-lyxo-hexanopyranosyl)oxy]-7,8,9,10-tetrahydro-6,8,11-trihydroxy-10-methoxy-, hydrochloride]
[1]
  secreted/excreted into the bile: ~40%

## CC[C@]1(O)C[C@@H]2CN(CCc3c([nH]c4ccccc34)[C@@](C(=O)OC)(c3cc4c(cc3OC)N(C)[C@H]3[C@@](O)(C(=O)OC)[C@H](OC(C)=O)[C@]5(CC)C=CCN6CC[C@]43[C@@H]65)C2)C1 [Vinblastine]
[1]
  excreted/recovered in the urine: Approximately 15%

## CO[C@@]12[C@H](COC(N)=O)C3=C(C(=O)C(C)=C(N)C3=O)N1C[C@@H]1N[C@@H]12 [Mitomycin]
[1]
  excreted/recovered in the urine: Approximately 10%

## COc1cccc2c1C(=O)c1c(O)c3c(c(O)c1C2=O)C[C@@](O)(C(=O)CO)C[C@@H]3O[C@H]1C[C@H](N)[C@H](O)[C@H](C)O1 [Doxorubicin, 5,12-Naphthacenedione, (8s-cis)-10-[(3-amino-2,3,6-trideoxy-a-L-lyxo-hexopyranosyl)oxy]-7,8,9,10-tetrahydro-6,8,11-trihydroxy-8-(hydroxyacetyl)-1-methoxy-hydrochloride]
[1]
  excreted/recovered in the urine: a few percent

## CC[C@@]1(O)C(=O)OCc2c1cc1n(c2=O)Cc2cc3ccccc3nc2-1 [Camptothecin]
2-8° C., dry, airtight, light-resistant environment
  storage stability: at least two years

## Cc1c2oc3c(C)ccc(C(=O)N[C@@H]4C(=O)N[C@H](C(C)C)C(=O)N5CCC[C@H]5C(=O)N(C)CC(=O)N(C)[C@@H](C(C)C)C(=O)O[C@@H]4C)c3nc-2c(C(=O)N[C@@H]2C(=O)N[C@H](C(C)C)C(=O)N3CCC[C@H]3C(=O)N(C)CC(=O)N(C)[C@@H](C(C)C)C(=O)O[C@@H]2C)c(N)c1=O [Actinomycin D] (I: T[dV]P[Sar][NMeV] / II: T[dV]P[Sar][NMeV]; ester I:1-I:C, II:1-II:C; linker I:N-II:N via Actinocin(9to1))
[1]
  excreted/recovered in the urine: 10%
  secreted/excreted into the bile: Half

## O=NN(CCCl)C(=O)NC1CCCCC1 [Lomustine, 1-(2-chloro-ethyl)-3-cyclohexyl-1 nitrosourea]
Absolute alcohol
  solubility: 70 mg per ml
water
  solubility: < 0.05 mg per ml
